Measured values taken from patent US8822430B2 (Gilead Sciences, Inc., priority 2009, dated 2014).

The molecules below were run on HCV 1b RLuc cells (dicistronic genotype 1b Con1 replicon) (assay: Renilla luciferase (RLuc)-based HCV replicon reporter assay). Details: Hepatitis C virus, 72 h, HCV 1b RLuc replicon, 72 hours; read-out: Activity (antiviral potency [EC50]).
Format: cell-based, HCV genotype 1b
Method in brief: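 HCV 1b RLuc cells carrying a dicistronic genotype 1b Con1 replicon were treated with serially diluted compounds from 10 mM DMSO stocks. After 72 h, cells were lysed and Renilla luciferase activity measured. EC50 was obtained by non-linear regression.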

Row | Structure (SMILES) | EC50 [nM]
1 | COC(=O)N[C@H](C(=O)N1CC2(CC2)C[C@H]1c1ncc(-c2ccc3cc(-c4ccc(-c5cnc([C@@H]6[C@H]7CC[C@H](C7)N6C(=O)[C@@H](NC(=O)OC)C(C)OC)[nH]5)cc4)ccc3c2)[nH]1)C(C)OC (stereo partly drawn) | 0.0201
2 | COC(=O)NC(C(=O)N1CCC[C@H]1c1ncc(-c2ccc(-c3ccc(-c4cnc([C@@H]5CCCN5C(=O)[C@@H](NC(=O)OC)C(C)C)[nH]4)cc3)c3ccccc23)[nH]1)C(C)C (stereo partly drawn) | 0.0067
3 | COC(=O)N[C@H](C(=O)N1CCC[C@H]1C(=O)Nc1ccc(-c2ccc(-c3ccc(-c4cnc([C@@H]5CCCN5C(=O)[C@@H](NC(=O)OC)C(C)C)[nH]4)cc3)cc2)cc1)C(C)C | 0.0875
4 | COC(=O)N[C@H](C(=O)N1CCC[C@H]1c1ncc(-c2ccc(-c3cnc(-c4ccc(-c5cnc([C@@H]6CCCN6C(=O)[C@@H](NC(=O)OC)C(C)C)[nH]5)cc4)s3)cc2)[nH]1)C(C)C | 0.0385
5 | COC(=O)N[C@H](C(=O)N1CCC[C@H]1c1nc2ccc(-c3ccc(-c4cnc([C@@H]5[C@H]6CC[C@H](C6)N5C(=O)[C@@H](NC(=O)OC)C(C)C)[nH]4)cc3)cc2[nH]1)C(C)C | 0.0553
6 | COC(=O)N[C@H](C(=O)N1CC2(CC2)C[C@H]1c1ncc(-c2ccc3cc(-c4ccc(-c5cnc([C@@H]6[C@H]7CC[C@H](C7)N6C(=O)[C@@H](NC(=O)OC)C(C)C)[nH]5)cc4)ccc3c2)[nH]1)C(C)C | 0.0067
7 | COC(=O)N[C@H](C(=O)N1CCC[C@H]1C(=O)Nc1ccc(CCc2ccc(NC(=O)[C@@H]3CCCN3C(=O)[C@@H](NC(=O)OC)C(C)C)cc2)cc1)C(C)C | 0.264
8 | COC(=O)N[C@H](C(=O)N1CC2(CC2)C[C@H]1c1ncc(-c2ccc3c(c2)C(F)(F)c2cc(-c4ccc5nc([C@@H]6[C@H]7CC[C@H](C7)N6C(=O)[C@@H](NC(=O)OC)C(C)C)[nH]c5c4)ccc2-3)[nH]1)C(C)C | 0.0045
9 | COC(=O)N[C@H](C(=O)N1CCC[C@H]1c1ncc(-c2ccc3cc(-c4ccc(-c5cnc([C@@H]6CCCN6C(=O)[C@H](OC)c6ccccc6)[nH]5)cc4)ccc3c2)[nH]1)C(C)C | 0.0163
10 | COC(=O)N[C@H](C(=O)N1CCC[C@H]1c1ncc(-c2ccc(N3CCN(c4ccc(-c5cnc([C@@H]6CCCN6C(=O)[C@@H](NC(=O)OC)C(C)C)[nH]5)cc4)CC3)cc2)[nH]1)C(C)C | 0.199
11 | COC(=O)N[C@H](C(=O)N1CCC[C@H]1c1ncc(-c2ccc3cc(-c4ccc(-c5cnc([C@@H]6CCCN6C(=O)[C@H](O)c6ccccc6)[nH]5)cc4)ccc3c2)[nH]1)C(C)C | 0.0097
12 | COC(=O)N[C@H](C(=O)N1CCC[C@H]1c1ncc(-c2ccc3c(c2)COCc2cc(-c4cnc([C@@H]5[C@H]6CC[C@H](C6)N5C(=O)[C@@H](NC(=O)OC)C(C)C)[nH]4)ccc2-3)[nH]1)C(C)C | 0.0221
13 | COC(=O)N[C@@H](C)C(=O)N1[C@@H]2CC[C@@H](C2)[C@H]1c1nc2ccc(-c3ccc4c(c3)C(F)(F)c3cc(-c5cnc([C@@H]6CC7(CC7)CN6C(=O)[C@@H](NC(=O)OC)C(C)C)[nH]5)ccc3-4)cc2[nH]1 | 0.0036
14 | COC(=O)NC(C(=O)N1CCC[C@H]1c1ncc(-c2ccc3cc(-c4ccc(-c5cnc([C@@H]6C[C@H](OC(F)F)CN6C(=O)[C@@H](NC(=O)OC)C(C)C)[nH]5)cc4)ccc3c2)[nH]1)c1ccccc1 (stereo partly drawn) | 0.0171
15 | COC(=O)N[C@@H](CCOC(F)F)C(=O)N1CCC[C@H]1c1ncc(-c2ccc(-c3ccc(-c4cnc([C@@H]5CC6(CN5C(=O)[C@@H](NC(=O)OC)C(C)C)OCCO6)[nH]4)cc3)cc2)[nH]1 | 0.128
16 | COC(=O)N[C@H](C(=O)N1CCC[C@H]1c1ncc(-c2ccc3cc(-c4ccc(-c5cnc([C@@H]6CCCN6C(=O)[C@H](NC(=O)OC)C6CCCCC6)[nH]5)cc4)ccc3c2)[nH]1)C(C)C | 0.0972
17 | COC(=O)N[C@H](C(=O)N1CC2(CC2)C[C@H]1c1ncc(-c2ccc(-c3ccc4cc(-c5cnc([C@@H]6[C@H]7CC[C@H](C7)N6C(=O)[C@@H](NC(=O)OC)C(C)(C)OC)[nH]5)ccc4c3)cc2)[nH]1)C(C)C | 0.0155
18 | COC(=O)N[C@H](C(=O)N1CCC[C@H]1c1ncc(-c2ccc3cc(-c4ccc(-c5cnc([C@@H]6C[C@@H](C#N)CN6C(=O)[C@@H](NC(=O)OC)C(C)C)[nH]5)cc4)ccc3c2)[nH]1)C(C)C | 0.0048
19 | COC(=O)N[C@H](C(=O)N1CCC[C@H]1c1nc2ccc(-c3ccc(-c4ccc5nc([C@@H]6CCCN6C(=O)[C@@H](NC(=O)OC)C(C)C)[nH]c5c4)cc3)cc2[nH]1)C(C)C | 0.0099
20 | COC(=O)N[C@H](C(=O)N1CCC[C@H]1c1ncc(-c2ccc(-c3ccc4cc(-c5cnc([C@@H]6CCCN6C(=O)[C@@H](NC(=O)OC)C6CCOCC6)[nH]5)ccc4c3)cc2)[nH]1)C1CCOCC1 | 0.0686
21 | COC(=O)N[C@H](C(=O)N1CCC[C@H]1c1ncc(-c2cc3cc4sc(-c5cnc([C@@H]6CCCN6C(=O)[C@@H](NC(=O)OC)C(C)C)[nH]5)cc4cc3s2)[nH]1)C(C)C | 0.0077
22 | COC(=O)N[C@@H](Cc1ccccc1)C(=O)N1CCC[C@H]1c1ncc(-c2ccc(-c3ccc4cc(-c5cnc([C@@H]6CCCN6C(=O)[C@@H](NC(=O)OC)C(C)C)[nH]5)ccc4c3)cc2)[nH]1 | 0.0181
23 | CC[C@H](NC(=O)OC)C(=O)N1C[C@@H](C#N)C[C@H]1c1ncc(-c2ccc(-c3ccc4cc(-c5cnc([C@@H]6CC7(CC7)CN6C(=O)[C@@H](NC(=O)OC)C(C)C)[nH]5)ccc4c3)cc2)[nH]1 | 0.0176

Row | Structure (SMILES) | EC50 [nM]
24 | COC(=O)N[C@H](C(=O)N1CCC[C@H]1c1nc(-c2cccc(Oc3ccc(-c4cnc([C@@H]5CCCN5C(=O)[C@@H](NC(=O)OC)C(C)C)[nH]4)cc3)c2)c[nH]1)C(C)C | 0.0539
25 | COC(=O)N[C@H](C(=O)N1CC2(CC2)C[C@H]1c1ncc(-c2ccc(-c3ccc4cc(-c5cnc([C@@H]6C[C@H](C#N)CN6C(=O)[C@@H](NC(=O)OC)C(C)(C)C)[nH]5)ccc4c3)cc2)[nH]1)C(C)C | 0.0165
26 | COC(=O)N[C@H](C(=O)N1CCC[C@H]1c1ncc(-c2ccc(-c3ccc(-c4cnc([C@@H]5CN(CC(F)(F)F)CN5C(=O)[C@@H](NC(=O)OC)C(C)C)[nH]4)cc3)cc2)[nH]1)C(C)C | 0.0074
27 | COC(=O)N[C@H](C(=O)N1CCC(c2ncc(-c3ccc(-c4ccc(-c5cnc([C@@H]6CCCN6C(=O)[C@@H](NC(=O)OC)C(C)C)[nH]5)cc4)cc3)[nH]2)C1)C(C)C (stereo partly drawn) | 0.775
28 | COC(=O)N[C@H](C(=O)N1CCC[C@H]1c1ncc(-c2ccc(N3CCC(c4cnc([C@@H]5CCCN5C(=O)[C@@H](NC(=O)OC)C(C)C)[nH]4)CC3)cc2)[nH]1)C(C)C | 0.456
29 | COC(=O)N[C@H](C(=O)N1CCC[C@H]1c1ncc(-c2ccc(-c3ccc(-c4cnc(CN5CCC[C@H](N)C5=O)[nH]4)cc3)cc2)[nH]1)C(C)C | 4.8
30 | COC(=O)N[C@@H](CC#N)C(=O)N1[C@@H]2CC[C@@H](C2)[C@H]1c1ncc(-c2ccc3cc(-c4ccc(-c5cnc([C@@H]6CCCN6C(=O)[C@@H](NC(=O)OC)C(C)C)[nH]5)cc4)ccc3c2)[nH]1 | 0.013
31 | COC(=O)NC(C(=O)N1CCC[C@H]1c1ncc(-c2cc3c(OC)c4sc(-c5cnc([C@@H]6CCCN6C(=O)C(NC(=O)OC)c6ccccc6)[nH]5)cc4c(OC)c3s2)[nH]1)c1ccccc1 (stereo partly drawn) | 0.0262
32 | COC(=O)N[C@H](C(=O)N1CCC[C@H]1c1ncc(-c2ccc(-c3ccc4cc(-c5cnc([C@@H]6[C@H]7CC[C@H](C7)N6C(=O)[C@@H](NC(=O)OC)C(C)C)[nH]5)ccc4c3)cc2)[nH]1)C(C)C | 0.011
33 | COC(=O)N[C@H](C(=O)N1CCC[C@H]1c1ncc(-c2ccc(-c3ccc(-c4cnc([C@H]5CC6(CCC6)ON5C(=O)[C@@H](NC(=O)OC)C(C)C)[nH]4)cc3)cc2)[nH]1)C(C)C | 0.11
34 | COC(=O)N[C@H](C(=O)N1CCC[C@H]1c1ncc(-c2ccc3c(c2)C(=O)c2cc(-c4cnc([C@@H]5CCCN5C(=O)[C@@H](NC(=O)OC)C(C)C)[nH]4)ccc2-3)[nH]1)C(C)C | 0.0184
35 | COC(=O)N[C@H](C(=O)N1CC2(CC2)C[C@H]1c1ncc(-c2ccc(-c3ccc4cc(-c5cnc([C@@H]6CC7(CC7)CN6C(=O)[C@@H](NC(=O)OC)C(C)C)[nH]5)ccc4c3)cc2)[nH]1)C(C)C | 0.0048
36 | COC(=O)N[C@@H](CCOCC(F)(F)F)C(=O)N1CCC[C@H]1c1ncc(-c2ccc(-c3ccc(-c4cnc([C@@H]5CCCN5C(=O)[C@@H](NC(=O)OC)C(C)C)[nH]4)cc3)cc2)[nH]1 | 0.0273
37 | CCC(=O)N[C@H](C(=O)N1CC2(CC2)C[C@H]1c1ncc(-c2ccc(-c3ccc(-c4cnc([C@@H]5CCCN5C(=O)[C@@H](NC(=O)OC)C(C)C)[nH]4)cc3)cc2)[nH]1)C(C)C | 0.013
38 | COC(=O)N[C@H](C(=O)N1CCC[C@H]1c1ncc(-c2ccc(-c3ccc(-c4cnc([C@@H]5CC6(CCC6)ON5C(=O)[C@@H](NC(=O)OC)C(C)C)[nH]4)cc3)cc2)[nH]1)C(C)C | 0.0083
39 | COC(=O)N[C@H](C(=O)N1CCC[C@H]1C(=O)Nc1cccc(-c2ccc(-c3ccc(-c4cnc([C@@H]5CCCN5C(=O)[C@@H](NC(=O)OC)C(C)C)[nH]4)cc3)cc2)c1)C(C)C | 0.0111
40 | COC(=O)N[C@H](C(=O)N1CCCC[C@H]1c1ncc(-c2ccc(C#Cc3ccc(-c4cnc([C@@H]5CCCN5C(=O)[C@@H](NC(=O)OC)C(C)C)[nH]4)cc3)cc2)[nH]1)C(C)C | 0.0224
41 | COC(=O)N[C@H](C(=O)N1CCC[C@H]1c1ncc(-c2ccc(C#Cc3ccc(-c4cnc([C@@H]5CN(C(C)=O)CN5C(=O)[C@@H](NC(=O)OC)C(C)C)[nH]4)cc3)cc2)[nH]1)C(C)C | 0.0403
42 | COC(=O)N[C@H](C(=O)N1CCC[C@H]1c1ncc(-c2ccc(-c3ccc4nc([C@@H]5CCCN5C(=O)[C@@H](NC(=O)OC)C(C)C)[nH]c4c3)cc2)[nH]1)C(C)C | 0.0372
43 | COC(=O)N[C@H](C(=O)N1CCC[C@H]1c1nc2ccc(C#Cc3ccc4nc([C@@H]5CCCN5C(=O)[C@@H](NC(=O)OC)C(C)C)[nH]c4c3)cc2[nH]1)C(C)C | 0.139
44 | COC(=O)N[C@H](C(=O)N1CCC[C@H]1c1ncc(C23CCC(c4cccc(-c5cnc([C@@H]6CCCN6C(=O)[C@H](NC(=O)OC)C(C)C)[nH]5)c4)(CC2)CC3)[nH]1)C(C)C | ≥ 44.4
45 | COC(=O)N[C@H](C(=O)N1CC2(CC2)C[C@H]1c1ncc(-c2ccc3cc(-c4ccc(-c5cnc([C@@H]6SCCN6C(=O)[C@@H](NC(=O)OC)C(C)C)[nH]5)cc4)ccc3c2)[nH]1)C(C)C | 0.0192
